PubChem BioAssay (NCI)
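Five concentrations, 48 hours, 96-well plates. TGI marks complete inhibition of growth.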

Assays:
Test in all cases: NCI anticancer screen, dose series, 48 h
BT-549 breast = system: BT-549 breast
HOP-62 NSCLC = system: HOP-62 NSCLC
HT29 colon = system: HT29 colon
MDA-MB-231 breast = system: MDA-MB-231 breast
NCI-H23 lung = system: NCI-H23 lung
SF-268 CNS = system: SF-268 CNS
SK-MEL-5 melanoma = system: SK-MEL-5 melanoma
SNB-19 CNS = system: SNB-19 CNS
SW-620 colon = system: SW-620 colon
A498 renal = system: A498 renal

SMILES | TGI (BT-549 breast) [µM] | TGI (HOP-62 NSCLC) [µM] | TGI (HT29 colon) [µM] | TGI (MDA-MB-231 breast) [µM] | TGI (NCI-H23 lung) [µM] | TGI (SF-268 CNS) [µM] | TGI (SK-MEL-5 melanoma) [µM] | TGI (SNB-19 CNS) [µM] | TGI (SW-620 colon) [µM] | TGI (A498 renal) [µM]
Cc1ccc(NC(=O)C(=O)CC(=O)c2sc(Nc3c(C)cccc3C)nc2C)cc1C | > 100 | > 100 | > 100 | > 100 | > 100 | > 100 | > 100 | > 100 | > 100 | –
CN(C)/N=C1\CC(c2ccccc2)C(C#N)(C#N)C1(C#N)C#N (centres undefined) | – | 59 | 50.5 | 36.9 | 53.1 | 35.6 | 24.4 | 54.1 | 36.2 | 33.8
C[C@H](C/C=C/C(C)(C)O)[C@H]1CC[C@@]2(C)[C@@H]3CC[C@H]4C(C)(C)[C@@H](O)CC[C@@]45C[C@@]35CC[C@]12C | 56 | 33.6 | > 100 | 33.2 | – | 19.6 | – | 54.9 | 65.4 | 40.8
COc1cccc(-c2cc(=O)c3ccccc3[nH]2)c1 | – | > 100 | > 100 | – | > 100 | > 100 | > 100 | > 100 | > 100 | > 100
O=C1Nc2ccccc2/C1=c1\[nH]c(=O)/c(=C\c2ccc(OCc3ccccc3)cn2)[nH]c1=O | – | 65.7 | > 100 | 91.7 | > 100 | > 100 | > 100 | > 100 | > 100 | 77.9
N#C/C(=C/NC(=S)c1ccncc1)C(N)=O | > 100 | > 100 | > 100 | > 100 | > 100 | > 100 | > 100 | > 100 | > 100 | > 100
C[N+]1(CCN[N+]2(C)CCCCC2)CCc2ccccc2C1 (centres undefined) | > 100 | > 100 | > 100 | > 100 | > 100 | > 100 | > 100 | > 100 | > 100 | > 100
O=C(CCc1ccccc1)ON1C(=S)C(c2ccccc2)(c2ccccc2)N=C1Sc1ccccc1 | > 100 | > 100 | > 100 | > 100 | > 100 | > 100 | > 100 | > 100 | – | > 100
CCN(CC)c1ccc(/C=C/C=C2C(=O)NC(=S)NC2=O)cc1 | > 75.4 | 47.9 | > 100 | > 78.6 | > 100 | > 100 | > 100 | > 100 | > 100 | > 100
COc1cccc(/C=N/[N-]C(N)=O)c1[O-].[Cu+2].[OH3+].c1ccc(-c2ccccn2)nc1 | – | > 67.7 | > 100 | – | 37.3 | > 100 | 31.6 | 38.1 | > 100 | 35.8
CN(C)c1cccc(NC2=NCCO2)c1 | – | > 100 | 47.4 | > 100 | 85.3 | > 100 | > 100 | > 100 | > 100 | > 100
